Assay results published in US20230293478A1, “NITROGEN-CONTAINING ANALOGS OF SALINOMYCIN FOR USE IN ACUTE MYELOID LEUKEMIA” (Centre National de la Recherche Scientifique (CNRS), priority 2020, published 2023).

Assays:
[1] = test system: primary AML samples derived from patients with venetoclax resistant or refractory disease; test: Primary patient synergy analysis (PI viability, Bliss); format: cell-based, human; conditions: monotherapy, 1 μM, 5 days, five primary samples
Procedure: Samples were collected from patients with AML treated at the Alfred Hospital after obtaining informed consent. Studies were conducted in accordance with the approved protocols through the Human Research Ethics Committee of the Alfred Hospital and the Declaration of Helsinki for all subjects. Primary AML cells were cultured in StemSpan SFEM (Stemcell Technologies) supplemented with 10 ng/mL IL-3, 10 ng/mL IL-6, 50 ng/mL SCF and 50 ng/mL FLT3L (all Peprotech) and 35 nM UM171 and 500 nM stemreginin (StemCell Technologies). For primary patient synergy analyses, 50,000 AML cells were plated in each well of a 96-well plate, and cultured with escalating doses of ironomycin and venetoclax for 5 days in medium conditions as described above. After 5 days, viability was assessed via propidium iodide staining and flow cytometry (BD FACSCanto). Synergy was determined using the Bliss synergy model.

[2] = test system: MV4,11 cells transplanted into NSG mice; test: AML xenograft model, survival; format: in vivo, mouse; conditions: 5 days/week for 4 weeks, single agent
Procedure: Ironomycin was dissolved in PBS+2.5% DMSO. […] Animals were euthanized at the completion of treatment.

[3] = test system: WT MV4; 11 cell line; test: Cell death analysis (PI, Cell titer glow) in WT MV4;11; format: cell-based, human; conditions: 24 h
Procedure: (§1) Cells were seeded at a constant density prior to treatment in triplicate and treated with either ironomycin or DMSO over the indicated time period. Drug was refreshed at least every two days. Cells were stained with DAPI and live cell number was calculated using the BD FACSVerse (BD Biosciences). CellTitreGlo (Promega) assays were performed as per manufacturer's instructions in a 96 well plate format. To determine the half-maximal inhibitory concentration (IC50) for ironomycin, 24 h after seeding the cells at a constant density in triplicate, cells were treated with ironomcyin or DMSO for 72 hours. At day 3, after incubating the cells with 600 μM of resazurin for 6 h, fluorescence was measured at λex=530 nm and λem=590 nm, using a Microplate Reader (EnSpire, Perkin Elmer). Relative fluorescence units were converted to per cent of inhibition relative to controls on the same plate, and the data were fitted against a four-parameter logistic model to determine the IC50.
(§2) Cell death, cells were washed once with PBS and assessed using propidium iodide PI from staining (Sigma) according to manufacturer's instructions. Lipid peroxidation was assessed with BODIPYC11 staining (Thermo Fisher D3861). Cell were washed once with PBS and stained for 30 minutes in the dark at room temperature in 1 ml of 7.5 μM PBS solution, washed once and assessed according to manufacturer's instructions. […]

[4] = test system: cleaved PARP1 and cleaved caspase 3 in MOLM-13 cell line; test: Immunoblot of cleaved PARP1 and cleaved caspase 3; format: cell-based, human; conditions: 500 nM, 24 h
Procedure: Cells were lysed in 20 mM HEPES pIH7.9, 0.5 mM EDTA, 2% SDS plus 1× protease inhibitor cocktail (Roche) by brief sonication. Lysates were heated to 95° C. in SDS sample buffer with 50 mM DTT for 5 min, separated by SDS-PAGE and transferred to PVDF membrane (Millipore). Membranes were blocked in 5% milk or BSA in TBS +0.1% Tween-20, probed with the indicated antibodies, and reactive bands visualised using ECL Prime (GE).

[5] = test system: HL-60; test: IC50 determination (resazurin), HL-60; format: cell-based; conditions: Homo sapiens; HL-60 cell line, 72 hours
Procedure: as §1

[6] = test system: lysosomal iron in MOLM13 cells; test: Lysosomal iron, RhoNoxM probe flow cytometry; format: cell-based, human
Procedure: Ironomycin (AM5) and AM23 were synthesized as previously described (Mai et al., 2017), venetoclax (ABT-199), biranapant and IDN-6556 are commercially available. Metformin and phenformin, were purchased from sigma (PHR1084 and PHR1573) and reconstituted freshly in culture medium. Turn-off Fe2+ probe (Petrat et al., 2002) was synthesized as previously reported (Muller et al., 2018), dose was 1 μM for 1 h for flow cytometry experiments. RhonoxM (Hirayarna et al., 2013) was synthesized as previously reported (Mai et al., 2017), dose was 1 μM, 1 h for flow cytometry experiments. Liproxstatin-1 (sigma SML1414, DMSO), ferrostatin (sigma SML0583, DMSO), RSL3 (sigma SML2234, DMSO), 6 aminonicotidamide (sigma A68203, DMSO), Z-VADfmk (R&D system FMK001, DMSO).

[7] = test system: HEL 92.1.7; test: IC50 determination (resazurin), HEL 92.1.7; format: cell-based; conditions: Homo sapiens; HEL 92.1.7 cell line, 72 hours
Procedure: as §1

[8] = test system: human AML cell lines; test: IC50 determination across various human AML cell lines; format: cell-based; conditions: range over various human AML cell lines, 72 hours; read-out: Half maximal inhibitory concentration (IC50)
Procedure: as §1

[9] = test system: OCI-AML3; test: IC50 determination (resazurin), OCI-AML3; format: cell-based; conditions: Homo sapiens, OCI-AML-3; OCI-AML3 cell line, 72 hours
Procedure: as §1

[10] = test system: K 562; test: IC50 determination (resazurin), K 562; format: cell-based; conditions: Homo sapiens, K562; K 562 cell line, 72 hours
Procedure: as §1

[11] = test system: NOMO-1; test: IC50 determination (resazurin), NOMO-1; format: cell-based; conditions: Homo sapiens; NOMO-1 cell line, 72 hours
Procedure: as §1

[12] = test system: KG1; test: IC50 determination (resazurin), KG1; format: cell-based; conditions: Homo sapiens, KG-1; KG1 cell line, 72 hours
Procedure: as §1

[13] = test system: AML cell lines; test: Cell proliferation and PI cell death in AML cell lines; format: cell-based, human; conditions: all AML cell lines tested
Procedure: as §1, §2

[14] = test system: KASUMI-1; test: IC50 determination (resazurin), KASUMI-1; format: cell-based; conditions: Homo sapiens; KASUMI-1 cell line, 72 hours
Procedure: as §1

[15] = test system: MV4-11; test: IC50 determination (resazurin), MV4-11; format: cell-based; conditions: Homo sapiens; MV4-11 cell line, 72 hours
Procedure: as §1

[16] = test system: mitochondria in MV4; 11 cells; test: Transmission electron microscopy of mitochondria; format: cell-based, human; conditions: 500 nM, 16 h
Procedure: Cells were fixed in 2% GA in 0.1M sodium cacodylate buffer for 2 hours at room temperature, rinsed with 0.1M na-cacodylaatbuffer (5×10 min), and posffixation was done with 1% Osmium tetroxide and 1.5% Potassium ferricyanide for 2 hours at 4C in the dark. After rinsing in milliQ water, cells were stained with 0.5% Uranylacetate in MQ (±PH 4) for 1 h at 4° C. Cells were scraped and embedded in low melting agarose before serial dehydration in ethanol followed by propylene oxide and embedding into epon-araldyte resin. After polymerisation of the resin at 65 C for 48 hours, ultrathin sections were cut on a Leica UCT ultramicrotome and sections stained with uranyl acetate and lead citrate. Sections were examined on a Jeol JEM-1400Plus transmission electron microscope equipped with a Matataki flash camera at 80 keV.

[17] = test system: lipid ROS in OCIAML3 and MOLM-13 cells; test: Lipid peroxidation, C11 BODIPY 581/591 staining; format: cell-based, human; conditions: 500 nM, 48 hours
Procedure: (§3) Cell death, cells were washed once with PBS and assessed using propidium iodide PI from staining (Sigma) according to manufacturer's instructions. Lipid peroxidation was assessed with BODIPYC11 staining (Thermo Fisher D3861). Cell were washed once with PBS and stained for 30 minutes in the dark at room temperature in 1 ml of 7.5 μM PBS solution, washed once and assessed according to manufacturer's instructions. Mitochondrial ROS were assessed with mitosox red probe (thermofisher M36008) according to manufacturer's instructions. All flow cytometry analyses were performed on a LSR Fortessa X-20 flow cytometer (BD Biosciences) and all data analysed with FlowJo. Cell sorting was performed on a FACSAria Fusion 5 (BD Biosciences).

[18] = test system: SKM-1; test: IC50 determination (resazurin), SKM-1; format: cell-based; conditions: Homo sapiens; SKM-1 cell line, 72 hours
Procedure: as §1

[19] = test system: mitochondrial ROS in MV4; 11 and OCI-AML3; test: Mitochondrial ROS, Mitosox Red flow cytometry; format: cell-based, human; conditions: 500 nM, 24 hours
[20] = test system: MOLM-13; test: IC50 determination (resazurin), MOLM-13; format: cell-based; conditions: Homo sapiens; MOLM-13 cell line, 72 hours
Procedure: as §1

[21] = test system: NB4; test: IC50 determination (resazurin), NB4; format: cell-based; conditions: Homo sapiens, NB-4; NB4 cell line, 72 hours
Procedure: as §1

[22] = Mai et al., 2017; cited from earlier work
[23] = test system: WT MV4; 11 cell line; test: PI cell death in medium with different glucose concentration; format: cell-based, human; conditions: 500 nM, 48 h
Procedure: as §3

[24] = test system: mitochondrial iron in MOLM13 cells; test: ICP-MS iron on isolated mitochondria; format: cell-based, human; conditions: ICP-MS on isolated mitochondria after treatment

Compound: Venetoclax [reference compound]
- impaired cell viability [1]: 6-40%
- survival ([2]; venetoclax 75 mg/kg oral gavage): did not result in any survival advantage
- cell death [3]: induce cell death

Compound: C#CCN[C@@H]1C=C[C@]2(O[C@H]([C@@H](CC)C(=O)[C@@H](C)[C@@H](O)[C@H](C)[C@@H]3O[C@@H]([C@@H](CC)C(=O)O)CC[C@@H]3C)[C@@H](C)C[C@H]2C)O[C@@]12CC[C@@](C)([C@H]1CC[C@](O)(CC)[C@H](C)O1)O2 [Ironomycin]
- cleavage of caspase 3 and PARP1 [4]: did not cleaved caspase 3 nor PARP1
- IC50 [5]: 0.026 µM
- lysosomal iron [6]: increased lysosomal iron
- survival ([2]; ironomycin 1 mg/kg IP): did not result in any survival advantage
- IC50 [7]: 0.26 µM
- IC50 [8]: 0.014 to 0.41 µM
- IC50 [9]: 0.118 µM
- IC50 [10]: 0.41 µM
- IC50 [11]: 0.03 µM
- IC50 [12]: 0.014 µM
- cell death (PI staining) [13]: rapid cell death
- proliferation [13]: proliferation block in a dose dependent manner
- cell death [3]: induce cell death
- IC50 [14]: 0.016 µM
- IC50 [15]: 0.061 µM
- cristae structure [16]: disturbed the cristae structure
- lipid peroxidation [17]: induced a lipid peroxidation
- IC50 [18]: 0.045 µM
- mitochondrial ROS [19]: increased mitochondrial ROS
- IC50 [20]: 0.07 µM
- IC50 [21]: 0.047 µM
- potency relative to Salinomycin [22]: ten times more potent
- efficacy in killing AML cells ([23]; increased glucose concentration): higher efficacy
- efficacy in killing AML cells ([23]; low glucose conditions): less efficient
- total iron in mitochondria [24]: decrease in total iron into the mitochondria
